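Tested at 5 concentrations; 48 h exposure; 96-well plates; endpoints linearly interpolated, else capped at highest concentration. GI50: concentration for 50% inhibition of growth.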 Active and inactive are the calls of the source. Cut-off read from the data, not from the text of the source: active = GI50 up to about 1.1 µM and inactive = higher. Some results are limits rather than exact numbers.

From ChEMBL document CHEMBL1201862, “PubChem BioAssay data set” (2004) come the findings set out here.

Test systems include 786-0; A498; A549; ACHN; DU-145; HCC 2998; HCT-15; Hs-578T; K562; Malme-3M; NCI-H226; OVCAR-4; PC-3; RXF 393; SK-MEL-5; SNB-19; SNB-75; SW-620; U-251; UO-31.
What all share (assay): NCI tumour cell line growth inhibition, 48 h

For `Cn1c(=S)[nH]c(N)c(Cc2ccccc2)c1=O`, the GI50 was > 100 µM (inactive) with 786-0; 32.1 µM (inactive) in the test with A498; > 100 µM (inactive) with A549; > 100 µM (inactive) with ACHN; > 100 µM (inactive) in the test with DU-145; > 100 µM (inactive) in the test with HCC 2998. For the same compound, the GI50 in the test with HCT-15 was 42.9 µM; in the test on Hs-578T, 39 µM (inactive); in the test on K562, 78.5 µM (inactive); in the test on Malme-3M it was 78 µM (inactive); with NCI-H226 it was 44.3 µM (inactive); in the test on OVCAR-4 it was > 100 µM (inactive). For the same compound, the GI50 with PC-3 was > 100 µM (inactive); in the test with RXF 393 it was > 100 µM (inactive); with SK-MEL-5, > 100 µM (inactive); in the test on SNB-19, > 100 µM (inactive); with SNB-75, 20.3 µM (inactive); with SW-620, > 100 µM (inactive). For the same compound, in the test on U-251, the GI50 was > 100 µM (inactive).

Consider `O=C1CCN/C(=N\C(=O)C(F)(F)F)N1CCc1c[nH]c2ccccc12`, for which the GI50 in the test on 786-0, with A498, with A549, in the test on ACHN, in the test on DU-145 and in the test with HCC 2998 was > 100 µM (inactive) throughout. The GI50 is more than 100 µM in the test on HCT-15; > 100 µM (inactive) in the test on Hs-578T; > 100 µM (inactive) in the test on K562; > 100 µM (inactive) with Malme-3M; > 100 µM (inactive) in the test on NCI-H226; > 100 µM (inactive) in the test with OVCAR-4. Moreover, the GI50 in the test with PC-3, with RXF 393, in the test on SK-MEL-5, with SNB-19, in the test with SW-620 and in the test with U-251 was > 100 µM (inactive) throughout. Moreover, the GI50 in the test on UO-31 is > 100 µM (inactive).

In the case of `N=C(N)NS(=O)(=O)c1ccc(Nc2c3ccccc3nc3c(C(=O)NC(CO)(CO)CO)cccc23)cc1`, the GI50 in the test on 786-0 is 15.7 µM (inactive); in the test with A498 it was 19.3 µM (inactive); in the test with A549, 9.66 µM (inactive); with ACHN, 11.1 µM (inactive); in the test with DU-145 it was 32.4 µM (inactive); with HCC 2998, 32.1 µM (inactive). Moreover, the GI50 is 93.8 µM in the test with HCT-15; 11.2 µM (inactive) in the test on Hs-578T; 24.2 µM (inactive) with K562; 19.4 µM (inactive) in the test with Malme-3M; > 10 µM (inactive) with OVCAR-4; 32.5 µM (inactive) with PC-3. The GI50 was 17.5 µM (inactive) with SK-MEL-5; 28.1 µM (inactive) with SNB-19; 2.3 µM (inactive) in the test with SNB-75; 17.6 µM (inactive) with SW-620; 12.2 µM (inactive) in the test with U-251; 27.5 µM (inactive) with UO-31.

With `CN1C(=O)C2(Cc3cn(C45CC67SSC(CO)(C(=O)N6C4Nc4ccccc45)N(C)C7=O)c4ccccc34)SSC1(CO)C(=O)N2C` (centres undefined), the GI50 in the test on 786-0 is < 0.01 µM (active); in the test with A498, 0.0291 µM (active); in the test with A549, 0.172 µM (active); with ACHN, < 0.01 µM (active); in the test on DU-145, 0.0261 µM (active); with HCC 2998 it was 0.0229 µM (active). The GI50 with HCT-15 was less than 0.01 µM; in the test on Hs-578T, 0.0282 µM (active); with K562, < 0.01 µM (active); with Malme-3M, < 0.01 µM (active); in the test on OVCAR-4 it was < 0.01 µM (active); in the test on PC-3, 0.0478 µM (active). In addition, the GI50 was 0.1 µM (active) in the test on SK-MEL-5; 0.271 µM (active) with SNB-19; 0.0423 µM (active) in the test with SNB-75; 0.0108 µM (active) in the test with SW-620; 0.0369 µM (active) in the test on U-251; 0.0335 µM (active) in the test with UO-31.

Turning to `CC1C(=O)CC[C@@]2(C)C(=O)CCCC12O` (some centres undefined), the GI50 in the test on 786-0, in the test on A498, in the test on A549, in the test on ACHN, in the test on DU-145 and in the test with HCC 2998 was > 100 µM (inactive) in each case. For the same compound, the GI50 in the test with HCT-15 was more than 100 µM; in the test with Hs-578T, > 100 µM (inactive); in the test on K562, > 100 µM (inactive); with Malme-3M, > 100 µM (inactive); with NCI-H226, > 100 µM (inactive); in the test on OVCAR-4, > 100 µM (inactive). The GI50 with PC-3, in the test with RXF 393, with SK-MEL-5, with SNB-19, in the test with SW-620 and in the test on U-251 was > 100 µM (inactive) throughout. The GI50 in the test with UO-31 was > 100 µM (inactive).

On to `O=C(Oc1c(Cl)cc(C2(c3cc(Cl)c(OC(=O)c4ccccc4)c(Cl)c3)CCCCC2)cc1Cl)c1ccccc1`, for which the GI50 in the test with 786-0 was 14.1 µM (inactive); with A498, 11.4 µM (inactive); in the test on A549, 12.3 µM (inactive); in the test with ACHN, 5.15 µM (inactive); with DU-145 it was 12.2 µM (inactive); in the test on HCC 2998, 10.1 µM (inactive). Also, the GI50 is 11.9 µM with HCT-15; 14.8 µM (inactive) with Hs-578T; 7.96 µM (inactive) in the test on K562; 16.3 µM (inactive) with NCI-H226; 10.9 µM (inactive) in the test with OVCAR-4; 9.42 µM (inactive) in the test with PC-3. Further, the GI50 in the test on RXF 393 is 11.5 µM (inactive); in the test with SK-MEL-5 it was 10.6 µM (inactive); in the test with SNB-19, 17.6 µM (inactive); with SNB-75, 11.7 µM (inactive); in the test with SW-620 it was 16.2 µM (inactive); in the test on U-251, 13.8 µM (inactive). The GI50 in the test on UO-31 was 18.5 µM (inactive).

On to `COc1ccc(N2C(=O)CC(c3c[nH]c4ccccc34)C2=O)cc1` (centres undefined), for which the GI50 with 786-0, with A498, in the test with A549, in the test on ACHN, in the test with DU-145 and in the test on HCC 2998 was > 100 µM (inactive) throughout. In addition, the GI50 with HCT-15 was more than 100 µM; in the test with Hs-578T, 9.08 µM (inactive); in the test with K562, > 100 µM (inactive); with Malme-3M, > 100 µM (inactive); in the test on NCI-H226, > 100 µM (inactive); in the test with PC-3, > 100 µM (inactive). Further, the GI50 in the test on RXF 393, in the test with SK-MEL-5, in the test with SNB-19, in the test with SW-620, in the test on U-251 and with UO-31 was > 100 µM (inactive) in each case.

As for `COc1cc(/C=C2\N=C(c3ccccc3)N(c3nc4ccc(Sc5ccccc5)cc4[nH]3)C2=O)ccc1O`, the GI50 in the test with 786-0 is 21.7 µM (inactive); in the test on A498, 21.3 µM (inactive); in the test on A549 it was 30.5 µM (inactive); in the test on ACHN it was 26.9 µM (inactive); in the test with DU-145 it was 35.7 µM (inactive); in the test with HCC 2998, 15.8 µM (inactive). Moreover, the GI50 was 21.9 µM in the test on HCT-15; 32.4 µM (inactive) with Hs-578T; 11.7 µM (inactive) with K562; 18 µM (inactive) in the test with Malme-3M; 30.1 µM (inactive) with OVCAR-4; 24.4 µM (inactive) in the test on PC-3. Moreover, the GI50 in the test with RXF 393 was 28.5 µM (inactive); in the test with SK-MEL-5, 14.7 µM (inactive); in the test with SNB-19, 31.8 µM (inactive); in the test with SNB-75, 33.6 µM (inactive); in the test with SW-620 it was 21.7 µM (inactive); in the test on U-251, 19.4 µM (inactive). Further, in the test with UO-31, the GI50 was 28.7 µM (inactive).
